Test system: MCF-7 breast cancer cells
Experiment: Microarray gene expression analysis (Agilent whole human genome 4 x 44K; compound vs DMSO, LIMMA log2 fold change)
Type: cell-based
Conditions: cell cycle genes

## Oc1cccc(-c2nc(N3CCOCC3)c3oc4ncccc4c3n2)c1 [PI-103]
Gene 994
  CDC25B log2FC: -0.0551
Gene 995
  CDC25C log2FC: 1.56
Gene 997
  CDC34 log2FC: 0.51
Gene 998
  CDC42 log2FC: 0.08
Gene 1017
  CDK2 log2FC: -0.44
Gene 1018
  CDK3 log2FC: -0.00896
Gene 1019
  CDK4 log2FC: 0.17
Gene 1020
  CDK5 log2FC: 0.18
Gene 1022
  CDK7 log2FC: 0.77
Gene 1026
  CDKN1A log2FC: -1.23
Gene 1027
  CDKN1B log2FC: 1.12
Gene 1028
  CDKN1C log2FC: 0.88
Gene 1029
  CDKN2A log2FC: 0.30
Gene 1032
  CDKN2D log2FC: 0.90
Gene 1033
  CDKN3 log2FC: 0.04
Gene 1058
  CENPA log2FC: 0.29
Gene 1062
  CENPE log2FC: 1.00
Gene 1063
  CENPF log2FC: 1.50
Gene 1069
  CETN2 log2FC: 0.12
Gene 1107
  CHD3 log2FC: -0.15
Gene 1111
  CHEK1 log2FC: 0.38
Gene 1163
  CKS1B log2FC: 0.12
Gene 1164
  CKS2 log2FC: -0.62
Gene 1213
  CLTC log2FC: 0.15
Gene 1263
  PLK3 log2FC: -1.59
Gene 1386
  ATF2 log2FC: 0.88
Gene 1389
  CREBL2 log2FC: 0.85
Gene 1432
  MAPK14 log2FC: -0.30
Gene 1452
  CSNK1A1 log2FC: -0.04
Gene 1453
  CSNK1D log2FC: -0.30
Gene 1454
  CSNK1E log2FC: -0.52
Gene 1457
  CSNK2A1 log2FC: -0.65
Gene 1487
  CTBP1 log2FC: -0.24
Gene 1490
  CTGF log2FC: -0.35
Gene 1540
  CYLD log2FC: 0.38
Gene 1594
  CYP27B1 log2FC: -0.17
Gene 1613
  DAPK3 log2FC: -0.075
Gene 1642
  DDB1 log2FC: 0.26
Gene 1649
  DDIT3 log2FC: 2.08
Gene 1654
  DDX3X log2FC: -1.13
Gene 1718
  DHCR24 log2FC: -0.73
Gene 1719
  DHFR log2FC: 0.49
Gene 1739
  DLG1 log2FC: 0.12
Gene 1761
  DMRT1 log2FC: 0.0553
Gene 1781
  DYNC1I2 log2FC: 0.63
Gene 1785
  DNM2 log2FC: 0.27
Gene 1814
  DRD3 log2FC: -0.0531
Gene 1843
  DUSP1 log2FC: -0.80
Gene 1845
  DUSP3 log2FC: 0.48
Gene 1859
  DYRK1A log2FC: 0.34
Gene 1869
  E2F1 log2FC: -0.12
Gene 1870
  E2F2 log2FC: -0.38
Gene 1871
  E2F3 log2FC: -0.42
Gene 1874
  E2F4 log2FC: -0.66
Gene 1875
  E2F5 log2FC: 0.15
Gene 1876
  E2F6 log2FC: -0.52
Gene 1877
  E4F1 log2FC: 0.31
Gene 1894
  ECT2 log2FC: 0.84
Gene 1908
  EDN3 log2FC: -0.022
Gene 1950
  EGF log2FC: -0.01
Gene 1956
  EGFR log2FC: 0.48
Gene 1978
  EIF4EBP1 log2FC: 0.0433
Gene 1982
  EIF4G2 log2FC: -0.10
Gene 2010
  EMD log2FC: -0.12
Gene 2029
  ENSA log2FC: -0.0565
Gene 2059
  EPS8 log2FC: 0.46
Gene 2068
  ERCC2 log2FC: -0.27
Gene 2071
  ERCC3 log2FC: -0.11
Gene 2072
  ERCC4 log2FC: 0.06
Gene 2077
  ERF log2FC: 0.40
Gene 2079
  ERH log2FC: -0.38
Gene 2081
  ERN1 log2FC: -0.11
Gene 2113
  ETS1 log2FC: -0.82
Gene 2146
  EZH2 log2FC: 0.46
Gene 2189
  FANCG log2FC: 0.0225
Gene 2237
  FEN1 log2FC: -1.06
Gene 2241
  FER log2FC: 0.26
Gene 2247
  FGF2 log2FC: 0.18
Gene 2253
  FGF8 log2FC: -0.13
Gene 2255
  FGF10 log2FC: -0.00185
Gene 2260
  FGFR1 log2FC: -0.37
Gene 2261
  FGFR3 log2FC: -0.16
Gene 2263
  FGFR2 log2FC: 1.81
Gene 2273
  FHL1 log2FC: -0.0644
Gene 2296
  FOXC1 log2FC: -0.77
Gene 2305
  FOXM1 log2FC: -0.022
Gene 2316
  FLNA log2FC: -0.0267
Gene 2342
  FNTB log2FC: -0.45
Gene 2619
  GAS1 log2FC: 0.76
Gene 2620
  GAS2 log2FC: 0.15
Gene 2621
  GAS6 log2FC: -0.10
Gene 2672
  GFI1 log2FC: 0.03
Gene 2770
  GNAI1 log2FC: 1.07
Gene 2771
  GNAI2 log2FC: -0.26
Gene 2773
  GNAI3 log2FC: 0.53
Gene 2810
  SFN log2FC: -1.15
Gene 2827
  GPR3 log2FC: -0.30
Gene 2873
  GPS1 log2FC: 0.025
Gene 2874
  GPS2 log2FC: 0.19
Gene 2932
  GSK3B log2FC: -0.45
Gene 2935
  GSPT1 log2FC: -0.35
Gene 2956
  MSH6 log2FC: -0.0751
Gene 2965
  GTF2H1 log2FC: 0.32
Gene 3014
  H2AFX log2FC: -0.94
Gene 3054
  HCFC1 log2FC: -0.62
Gene 3065
  HDAC1 log2FC: -0.55
Gene 3066
  HDAC2 log2FC: 0.06
Gene 3082
  HGF log2FC: -0.20
Gene 3087
  HHEX log2FC: -0.29
Gene 3169
  FOXA1 log2FC: 0.13
Gene 3209
  HOXA13 log2FC: 0.04
Gene 3265
  HRAS log2FC: -0.76
Gene 3275
  PRMT2 log2FC: 0.29
Gene 3280
  HES1 log2FC: -1.26
Gene 3297
  HSF1 log2FC: 0.25
Gene 3306
  HSPA2 log2FC: -1.30
Gene 3320
  HSP90AA1 log2FC: 0.72
Gene 3398
  ID2 log2FC: 1.14
Gene 3399
  ID3 log2FC: -0.08
Gene 3458
  IFNG log2FC: -0.04
Gene 3479
  IGF1 log2FC: 0.05
Gene 3480
  IGF1R log2FC: 0.08
Gene 3481
  IGF2 log2FC: 0.0241
Gene 3552
  IL1A log2FC: -0.07
Gene 3553
  IL1B log2FC: 0.035
Gene 3576
  IL8 log2FC: -1.30
Gene 3593
  IL12B log2FC: -0.0227
Gene 3609
  ILF3 log2FC: -0.47
Gene 3611
  ILK log2FC: -0.0473
Gene 3619
  INCENP log2FC: 0.13
Gene 3622
  ING2 log2FC: 0.26
Gene 3623
  INHA log2FC: -0.06
Gene 3642
  INSM1 log2FC: -0.06
Gene 3643
  INSR log2FC: 0.74
Gene 3664
  IRF6 log2FC: 0.56
Gene 3688
  ITGB1 log2FC: 0.58
Gene 3725
  JUN log2FC: -0.94
Gene 3726
  JUNB log2FC: -0.65
Gene 3832
  KIF11 log2FC: 0.83
Gene 3875
  KRT18 log2FC: -0.44
Gene 3925
  STMN1 log2FC: 0.33
Gene 3976
  LIF log2FC: -1.84
Gene 3978
  LIG1 log2FC: 0.0377
Gene 3980
  LIG3 log2FC: -0.50
Gene 3993
  LLGL2 log2FC: -0.0661
Gene 4041
  LRP5 log2FC: -0.40
Gene 4085
  MAD2L1 log2FC: -0.14
Gene 4088
  SMAD3 log2FC: 0.24
Gene 4172
  MCM3 log2FC: 0.0559
Gene 4174
  MCM5 log2FC: 0.04
Gene 4176
  MCM7 log2FC: 0.08
Gene 4193
  MDM2 log2FC: -0.11
Gene 4194
  MDM4 log2FC: -0.14
Gene 4218
  RAB8A log2FC: -0.76
Gene 4282
  MIF log2FC: 0.23
Gene 4288
  MKI67 log2FC: 0.06
